# Assay results from patent publication US9708314B2, “Heterocyclic amide compound” (NISSAN CHEMICAL INDUSTRIES, LTD., priority 2013, dated 2017).
# Tests used:
# Assay type in all cases: in vivo
# [1] = tested on: Brassica campestris L.; test: Test Example 4: effect on crop by application to foliage (diluvial soil, plastic box); details: for g (Brassica campestris L.) effect on crop grade: foliage application
# Outline: (§1)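 Emulsion-formulated compound, diluted to a predetermined g/ha dose, applied by small sprayer to leaves and stems of 14-day-old seedlings grown in sterilized diluvial soil. Effect rated on 0–5 herbicidal-ratio scale three weeks on.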
# [2] = tested on: directly sowed Oryza sativa; test: as above; details: for d (directly sowed Oryza sativa) effect on crop grade: foliage application
# Outline: as §1
# [3] = tested on: Zea mays; test: as above; details: for b (Zea mays) effect on crop grade: foliage application
# Outline: as §1
# [4] = tested on: Glycine max; test: as above; details: for c (Glycine max) effect on crop grade: foliage application
# Outline: as §1
# [5] = tested on: Beta vulgaris ssp. vulgaris; test: as above; details: for f (Beta vulgaris ssp. vulgaris) effect on crop grade: foliage application
# Outline: as §1
# [6] = tested on: Triticum aestivum; test: as above; details: for e (Triticum aestivum) effect on crop grade: foliage application
# Outline: as §1
# [7] = tested on: directly sowed Oryza sativa; test: Test Example 3: effect on crop by application to foliage (Wagner pot, water depth 0.1-0.5 cm); details: Nineteenth Table; for b (effect on crop grade): application to foliage
# Outline: (§2)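 Grading uses six bands of herbicidal ratio, from 0 (≤5%, almost no effect) to 5 (≥90%, almost completely withered). Treatment was a stem-and-leaf spray of diluted emulsion at a fixed g/ha on 14-day-old plants; evaluation after three weeks.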
# [8] = tested on: Chenopodium album; test: Test Example 4: herbicidal effect by application to foliage (diluvial soil, plastic box); details: for O (Chenopodium album) herbicidal effect grade: foliage application
# Outline: as §1
# [9] = tested on: Amaranthus retroflexus; test: as above; details: for N (Amaranthus retroflexus) herbicidal effect grade: foliage application
# Outline: as §1
# [10] = tested on: Digitaria ciliaris; test: as above; details: for F (Digitaria ciliaris) herbicidal effect grade: foliage application
# Outline: as §1
# [11] = tested on: Alopecurus myosuroides; test: as above; details: for J (Alopecurus myosuroides) herbicidal effect grade: foliage application
# Outline: as §1
# [12] = tested on: Echinochloa crus-galli var. crus-galli; test: as above; details: for H (Echinochloa crus-galli var. crus-galli) herbicidal effect grade: foliage application
# Outline: as §1
# [13] = tested on: Apera spica-venti.; test: as above; details: for L (Apera spica-venti.) herbicidal effect grade: foliage application
# Outline: as §1
# [14] = tested on: Avena fatua; test: as above; details: for I (Avena fatua) herbicidal effect grade: foliage application
# Outline: as §1
# [15] = tested on: Galium spurium; test: as above; details: for Q (Galium spurium) herbicidal effect grade: foliage application
# Outline: as §1
# [16] = tested on: Lolium multiflorum Lam.; test: as above; details: for K (Lolium multiflorum Lam.) herbicidal effect grade: foliage application
# Outline: as §1
# [17] = tested on: Setaria viridis; test: as above; details: for G (Setaria viridis) herbicidal effect grade: foliage application
# Outline: as §1
# [18] = tested on: Stellaria media; test: as above; details: for P (Stellaria media) herbicidal effect grade: foliage application
# Outline: as §1
# [19] = tested on: Veronica persica; test: as above
# Outline: as §1
# [20] = tested on: Abutilon theophrasti; test: as above; details: for M (Abutilon theophrasti) herbicidal effect grade: foliage application
# Outline: as §1
# [21] = tested on: Leptochloa chinensis; test: Test Example 3: herbicidal effect by application to foliage (Wagner pot, water depth 0.1-0.5 cm); details: Nineteenth Table; for D (herbicidal effect grade): application to foliage
# Outline: as §2
# [22] = tested on: Echinochloa crus-galli var. crus-galli; test: as above; details: Nineteenth Table; for H (herbicidal effect grade): application to foliage
# Outline: as §2
# [23] = tested on: Cyperus difformis; test: as above; details: Nineteenth Table; for E (herbicidal effect grade): application to foliage
# Outline: as §2
# [24] = application herbicide amount 320 g/ha
# [25] = application to foliage, application herbicide amount 320 g/ha
# [26] = application herbicide amount 131 g/ha
compound,measurement,setting,value
Cn1nnnc1NC(=O)c1ccc(C(F)(F)F)n2c(CS(=O)(=O)CC(F)(F)F)nnc12 [2-036],g (Brassica campestris L.) effect on crop grade,[1]; 320 g/ha,3 (Herbicidal ratio of 40% or more and less than 70%)
same,d (directly sowed Oryza sativa) effect on crop grade,[2]; 320 g/ha,2 (Herbicidal ratio of 20% or more and less than 40%)
same,b (Zea mays) effect on crop grade,[3]; 320 g/ha,0 (Herbicidal ratio of 5% or less (almost no effect))
same,c (Glycine max) effect on crop grade,[4]; 320 g/ha,0 (Herbicidal ratio of 5% or less (almost no effect))
same,f (Beta vulgaris ssp. vulgaris) effect on crop grade,[5]; 320 g/ha,5 (Herbicidal ratio of 90% or more (almost completely withered))
same,e (Triticum aestivum) effect on crop grade,[6]; 320 g/ha,0 (Herbicidal ratio of 5% or less (almost no effect))
same,b (effect on crop grade),[7]; [24],1 (Herbicidal ratio of 5% or more and less than 20%)
same,O (Chenopodium album) herbicidal effect grade,[8]; 320 g/ha,5 (Herbicidal ratio of 90% or more (almost completely withered))
same,N (Amaranthus retroflexus) herbicidal effect grade,[9]; 320 g/ha,5 (Herbicidal ratio of 90% or more (almost completely withered))
same,F (Digitaria ciliaris) herbicidal effect grade,[10]; 320 g/ha,5 (Herbicidal ratio of 90% or more (almost completely withered))
same,J (Alopecurus myosuroides) herbicidal effect grade,[11]; 320 g/ha,0 (Herbicidal ratio of 5% or less (almost no effect))
same,H (Echinochloa crus-galli var. crus-galli) herbicidal effect grade,[12]; 320 g/ha,5 (Herbicidal ratio of 90% or more (almost completely withered))
same,L (Apera spica-venti.) herbicidal effect grade,[13]; 320 g/ha,3 (Herbicidal ratio of 40% or more and less than 70%)
same,I (Avena fatua) herbicidal effect grade,[14]; 320 g/ha,1 (Herbicidal ratio of 5% or more and less than 20%)
same,Q (Galium spurium) herbicidal effect grade,[15]; 320 g/ha,4 (Herbicidal ratio of 70% or more and less than 90%)
same,K (Lolium multiflorum Lam.) herbicidal effect grade,[16]; 320 g/ha,0 (Herbicidal ratio of 5% or less (almost no effect))
same,G (Setaria viridis) herbicidal effect grade,[17]; 320 g/ha,4 (Herbicidal ratio of 70% or more and less than 90%)
same,P (Stellaria media) herbicidal effect grade,[18]; 320 g/ha,5 (Herbicidal ratio of 90% or more (almost completely withered))
same,R (Veronica persica) herbicidal effect grade,"[19]; foliage application, 320 g/ha",4 (Herbicidal ratio of 70% or more and less than 90%)
same,M (Abutilon theophrasti) herbicidal effect grade,[20]; 320 g/ha,5 (Herbicidal ratio of 90% or more (almost completely withered))
same,D (herbicidal effect grade),[21]; [24],5 (Herbicidal ratio of 90% or more (almost completely withered))
same,H (herbicidal effect grade),[22]; [24],4 (Herbicidal ratio of 70% or more and less than 90%)
same,E (herbicidal effect grade),[23]; [24],4 (Herbicidal ratio of 70% or more and less than 90%)
Cc1nnc(NC(=O)c2ccc(C(F)(F)F)n3c(COc4ccccc4)nnc23)o1 [1-025],g (Brassica campestris L.) effect on crop,[1]; [25],2 (Herbicidal ratio of 20% or more and less than 40%)
same,d (directly sowed Oryza sativa) effect on crop,[2]; [25],3 (Herbicidal ratio of 40% or more and less than 70%)
same,b (Zea mays) effect on crop,[3]; [25],0 (Herbicidal ratio of 5% or less (almost no effect))
same,c (Glycine max) effect on crop,[4]; [25],0 (Herbicidal ratio of 5% or less (almost no effect))
same,f (Beta vulgaris ssp. vulgaris) effect on crop,[5]; [25],5 (Herbicidal ratio of 90% or more (almost completely withered))
same,e (Triticum aestivum) effect on crop,[6]; [25],0 (Herbicidal ratio of 5% or less (almost no effect))
same,b (directly sowed Oryza sativa) effect on crop grade,[7]; [24],2 (Herbicidal ratio of 20% or more and less than 40%)
same,O (Chenopodium album) herbicidal effect,[8]; [25],5 (Herbicidal ratio of 90% or more (almost completely withered))
same,N (Amaranthus retroflexus) herbicidal effect,[9]; [25],3 (Herbicidal ratio of 40% or more and less than 70%)
same,F (Digitaria ciliaris) herbicidal effect,[10]; [25],3 (Herbicidal ratio of 40% or more and less than 70%)
same,J (Alopecurus myosuroides) herbicidal effect,[11]; [25],0 (Herbicidal ratio of 5% or less (almost no effect))
same,H (Echinochloa crus-galli var. crus-galli) herbicidal effect,[12]; [25],4 (Herbicidal ratio of 70% or more and less than 90%)
same,L (Apera spica-venti.) herbicidal effect,[13]; [25],0 (Herbicidal ratio of 5% or less (almost no effect))
same,I (Avena fatua) herbicidal effect,[14]; [25],0 (Herbicidal ratio of 5% or less (almost no effect))
same,Q (Galium spurium) herbicidal effect,[15]; [25],3 (Herbicidal ratio of 40% or more and less than 70%)
same,K (Lolium multiflorum Lam.) herbicidal effect,[16]; [25],0 (Herbicidal ratio of 5% or less (almost no effect))
same,G (Setaria viridis) herbicidal effect,[17]; [25],2 (Herbicidal ratio of 20% or more and less than 40%)
same,P (Stellaria media) herbicidal effect,[18]; [25],4 (Herbicidal ratio of 70% or more and less than 90%)
same,R (Veronica persica) herbicidal effect,[19]; [25],3 (Herbicidal ratio of 40% or more and less than 70%)
same,M (Abutilon theophrasti) herbicidal effect,[20]; [25],5 (Herbicidal ratio of 90% or more (almost completely withered))
same,D (Leptochloa chinensis) herbicidal ratio grade,[21]; [24],3 (Herbicidal ratio of 40% or more and less than 70%)
same,H (Echinochloa crus-galli var. crus-galli) herbicidal ratio grade,[22]; [24],4 (Herbicidal ratio of 70% or more and less than 90%)
same,E (Cyperus difformis) herbicidal ratio grade,[23]; [24],2 (Herbicidal ratio of 20% or more and less than 40%)
CC(C)c1nnc2c(C(=O)Nc3nnnn3C)ccc(-c3ccccc3)n12 [2-055],g (Brassica campestris L.) effect on crop grade,[1]; 131 g/ha,0 (Herbicidal ratio of 5% or less (almost no effect))
same,d (directly sowed Oryza sativa) effect on crop grade,[2]; 131 g/ha,1 (Herbicidal ratio of 5% or more and less than 20%)
same,b (Zea mays) effect on crop grade,[3]; 131 g/ha,0 (Herbicidal ratio of 5% or less (almost no effect))
same,c (Glycine max) effect on crop grade,[4]; 131 g/ha,0 (Herbicidal ratio of 5% or less (almost no effect))
same,f (Beta vulgaris ssp. vulgaris) effect on crop grade,[5]; 131 g/ha,1 (Herbicidal ratio of 5% or more and less than 20%)
same,e (Triticum aestivum) effect on crop grade,[6]; 131 g/ha,0 (Herbicidal ratio of 5% or less (almost no effect))
same,b (effect on crop grade),[7]; [26],0 (Herbicidal ratio of 5% or less (almost no effect))
same,O (Chenopodium album) herbicidal effect grade,[8]; 131 g/ha,5 (Herbicidal ratio of 90% or more (almost completely withered))
same,N (Amaranthus retroflexus) herbicidal effect grade,[9]; 131 g/ha,3 (Herbicidal ratio of 40% or more and less than 70%)
same,F (Digitaria ciliaris) herbicidal effect grade,[10]; 131 g/ha,0 (Herbicidal ratio of 5% or less (almost no effect))
same,J (Alopecurus myosuroides) herbicidal effect grade,[11]; 131 g/ha,0 (Herbicidal ratio of 5% or less (almost no effect))
same,H (Echinochloa crus-galli var. crus-galli) herbicidal effect grade,[12]; 131 g/ha,0 (Herbicidal ratio of 5% or less (almost no effect))
same,L (Apera spica-venti.) herbicidal effect grade,[13]; 131 g/ha,0 (Herbicidal ratio of 5% or less (almost no effect))
same,I (Avena fatua) herbicidal effect grade,[14]; 131 g/ha,0 (Herbicidal ratio of 5% or less (almost no effect))
same,Q (Galium spurium) herbicidal effect grade,[15]; 131 g/ha,0 (Herbicidal ratio of 5% or less (almost no effect))
same,K (Lolium multiflorum Lam.) herbicidal effect grade,[16]; 131 g/ha,0 (Herbicidal ratio of 5% or less (almost no effect))
same,G (Setaria viridis) herbicidal effect grade,[17]; 131 g/ha,0 (Herbicidal ratio of 5% or less (almost no effect))
same,P (Stellaria media) herbicidal effect grade,[18]; 131 g/ha,4 (Herbicidal ratio of 70% or more and less than 90%)
same,M (Abutilon theophrasti) herbicidal effect grade,[20]; 131 g/ha,4 (Herbicidal ratio of 70% or more and less than 90%)
same,D (herbicidal effect grade),[21]; [26],0 (Herbicidal ratio of 5% or less (almost no effect))
same,H (herbicidal effect grade),[22]; [26],2 (Herbicidal ratio of 20% or more and less than 40%)
same,E (herbicidal effect grade),[23]; [26],0 (Herbicidal ratio of 5% or less (almost no effect))
